Measured values: ChEMBL document CHEMBL3137667, “[Drug-induced liver injury; fourteenth updated edition of the bibliographic database of liver injuries and related drugs]” (Gastroenterol Clin Biol, 2004)

Assays:
[1] = human
[2] = human; remark: listed apart in the source
[3] = Highest frequency of acute liver toxicity observed during clinical trials, expressed as a percentage. [column '% AIGUE' in source]; details: human
[4] = human; remark: listed apart in the source
[5] = Times to onset, minimal and maximal, observed in the indexed observations. [column 'DELAI' in source]; details: human
[6] = human; remark: listed apart in the source
[7] = human; remark: listed apart in the source
[8] = human, serum
[9] = Comments (NB not yet translated). [column 'COMMENTAIRES' in source]; details: human
[10] = human, serum, 4383 h
[11] = human; remark: listed apart in the source
[12] = human; remark: listed apart in the source
[13] = human, serum; remark: listed apart in the source
[14] = human; remark: listed apart in the source
[15] = Highest frequency of moderate liver toxicity observed during clinical trials, expressed as a percentage. [column '% BIOL' in source]; details: human
[16] = human; remark: listed apart in the source
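Throughout, for Hepatotoxicity (association with vascular disease): count of indexed literature references reporting vascular liver injury in humans, e.g. peliosis hepatitis, hepatic veno-occlusive disease or Budd-Chiari syndrome.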
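Throughout, for Hepatotoxicity (benign tumour): value is a count of indexed literature references citing a benign tumour confirmed by histopathology.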
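Throughout, for Hepatotoxicity (choleostasis): human cholestatic liver injury, shown by histopathology or by peak ALT or AST elevation over alkaline phosphatase ratio below 2, value counts indexed literature reports.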
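Throughout, for Hepatotoxicity (chronic liver disease): chronic liver injury confirmed by histopathology or persistently raised serum aminotransferase activity beyond 6 months, value given as the count of indexed literature references.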
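Throughout, for Hepatotoxicity (cirrhosis): value is a count of indexed literature references reporting cirrhosis confirmed by histopathology.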
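Throughout, for Hepatotoxicity (cytolytic): human cytolytic liver injury, shown by histopathology or by a ratio above 5 of peak ALT or AST elevation to alkaline phosphatase elevation, value counts indexed references.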
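Throughout, for Hepatotoxicity (granulomatous hepatitis): value is a count of indexed literature references reporting granulomatous liver disease confirmed by histopathology.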
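Throughout, for Hepatotoxicity (malignant tumour): malignant tumour confirmed by histopathology, value gives the count of indexed literature references reporting it.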
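Throughout, for Hepatotoxicity (severe hepatitis): human clinical data: severe hepatitis, meaning potentially life-threatening liver failure or clinically observed cases, the value counts how many indexed literature references report it.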
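Throughout, for Hepatotoxicity (steatosis): steatosis confirmed by histopathology, value is the count of indexed references.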

Molecule	Hepatotoxicity (association with vascular disease) [1]	Hepatotoxicity (choleostasis) [2]	Hepatotoxicity (acute) [3]	Hepatotoxicity (benign tumour) [4]	Hepatotoxicity (time to onset) [5]	Hepatotoxicity (steatosis) [6]	Hepatotoxicity (cirrhosis) [7]	Hepatotoxicity (acute) [8]	Hepatotoxicity (comment) [9]	Hepatotoxicity (chronic liver disease) [10]	Hepatotoxicity (cytolytic) [11]	Hepatotoxicity (malignant tumour) [12]	Hepatotoxicity (moderate) [13]	Hepatotoxicity (severe hepatitis) [14]	Hepatotoxicity (moderate) [15]	Hepatotoxicity (granulomatous hepatitis) [16]
Nc1c(CC(=O)O)cccc1C(=O)c1ccc(Br)cc1 [BROMFENAC]	0	0	0%	0	2 weeks - 8 months	0	0	7	AC_ANTI-N	0	7	0	0	7	0%	0
C#CCN(C)[C@H](C)Cc1ccccc1 [SELEGILINE]	0	1	0%	0	3 months	0	0	1	CHOLESTASE_PROLONGEE	0	0	0	2	0	4%	0
O=C(CCNNC(=O)c1ccncc1)NCc1ccccc1 [NIALAMIDE]	0	1	0%	0	3 weeks	1	0	2	RC/PHENIPRAZINE	0	2	0	0	0	0%	0
CC(=O)[C@]1(O)Cc2c(O)c3c(c(O)c2[C@@H](O[C@H]2C[C@H](N)[C@H](O)[C@H](C)O2)C1)C(=O)c1ccccc1C3=O [IDARUBICIN]	1	0	0%	0	8 days - 6 months	0	0	1	HCF MVO REACTIVATION_HVB	0	1	0	7	2	18.2%	0
CC(C(=O)O)c1cccc(Oc2ccccc2)c1 (centres undefined) [FENOPROFEN]	0	1	0%	0	1 week - 7 weeks	0	0	3	RC/NAPROXENE	0	2	0	1	0	7%	0
INFLIXIMAB	0	2	0%	0	19 days - 19 months	0	0	8	CHOLANGITE CHOLECYSTITE REACTIVATION_HVB	0	4	0	3	2	31.3%	0
C[C@@H]1C[C@H]2[C@@H]3CCC4=CC(=O)C=C[C@]4(C)[C@@]3(F)[C@@H](O)C[C@]2(C)[C@@]1(O)C(=O)CO [DEXAMETHASONE]	0	0	0%	0	8 days - 18 days	0	0	0	HEPATOMEGALIE	0	0	0	2	0	24%	0
ETANERCEPT	0	0	0%	0	4 weeks - 14 weeks	0	0	0	CHOLECYSTITE	0	0	0	2	0	5%	0
ANISTREPLASE	0	0	0%	0	6 days	0	0	1	HEMATOME_SOUS_CAPSULAIRE	0	1	0	0	0	0%	0
CCC(=O)O[C@@H](O[P@](=O)(CCCCc1ccccc1)CC(=O)N1C[C@H](C2CCCCC2)C[C@H]1C(=O)O)C(C)C [FOSINOPRIL]	0	2	0%	0	3 weeks - 3 months	0	0	2	PERICHOLANGITE CHOLESTASE_PROLONGEE	0	0	0	3	0	1.2%	0
C[C@]12CC[C@H]3[C@@H](CCC4=CC(=O)CC[C@@H]43)[C@@H]1CC[C@@H]2O [NANDROLONE]	0	1	0%	2	4 months - 12 years	1	0	7	CHOLESTASE_PROLONGEE	0	3	0	0	0	0%	0
CC(=O)c1ccc2c(c1)N(CC(C)N(C)C)c1ccccc1S2 (centres undefined) [ACEPROMETAZINE]	0	1	0%	0	3 months	0	0	1	CHOLESTASE_PROLONGEE	0	0	0	0	0	0%	0
C[C@]12CC[C@@H]3c4ccc(OS(=O)(=O)O)cc4CC[C@H]3[C@@H]1CCC2=O [ESTRONE SULFURIC ACID]	0	1	0%	1	3 months - 1 year	0	0	1	HNF	0	0	0	5	0	22.9%	0
CC(C)(C)NCC(O)c1cc(O)cc(O)c1 (centres undefined) [TERBUTALINE]	0	0	0%	0	4 weeks - 8 weeks	0	0	2	VOIR_BAMBUTEROL	0	2	0	0	0	0%	0
